Our source for the Km values is publication PMC10418725, “Trypsin from Pyloric Caeca of Asian Seabass: Purification, Characterization, and Its Use in the Hydrolysis of Acid-Soluble Collagen” (Foods, 2023).

For the test, the system named is purified trypsin (PT) from the pyloric caeca of Asian seabass. The test is described as follows: 4-nitroaniline release, A410; Lineweaver-Burk. The conditions noted are these: 30 °C, optimal pH (8.5) per Table 3 footnote; free enzyme; b65 text prints 0.0078 (no unit). Format: biochemical, Lates calcarifer.

Consider `NC(N)=NCCCC(NC(=O)c1ccccc1)C(=O)Nc1ccc([N+](=O)[O-])cc1` (stereo not shown) [BAPNA], for which the Km amounted to 78 µM.

For orientation: Km means the substrate concentration at which the rate is half of its maximum.
